Test results taken from US20120309767A1, “PROCESS FOR THE PREPARATION OF ALPHA FORM OF IMATINIB MESYLATE” (priority 2010, published 2012).
Read-outs that look alike come from different tables or passages of the source.

Conditions: 40° C. and 75 RH; for Identification by IR: vs working standard of Imatinib Mesylate (Form-α)
Method: FTIR (Fourier transform infrared spectrophotometer) • Make: SHIMADZU, IR Prestige-21 • Sample preparation: KBr pellets • 3. […] HPLC: Used Agilent 1200, VWD detector, system gradient Instrument conditions are:
A stability study was performed on the alpha form of imatinib mesylate at 40° C. and 75 RH for 3 months.

- Assay [by HPLC] (on anhydrous) (1M): 99.94%
- Descriptions (1M): White
- Water content by KF (1M): 0.55 % w/w
- Identification by IR (1M): concordant
- Assay [by HPLC] (on anhydrous) (2M): 99.70%
- Descriptions (2M): White
- Related Substance [by HPLC] Unknown impurity RRT = 0.81 (2M): 0.03 % w/w
- Water content by KF (2M): 0.61 % w/w
- Identification by IR (2M): concordant
- Assay [by HPLC] (on anhydrous) (3M): 99.75%
- Descriptions (3M): White
- Related Substance [by HPLC] Known impurities: Impurity-1 (3M): 0.02 % w/w
- Related Substance [by HPLC] Unknown impurity RRT = 0.81 (3M): 0.02 % w/w
- Water content by KF (3M): 0.56 % w/w
- Identification by IR (3M): concordant
- Assay [by HPLC] (on anhydrous) (Initial): 99.98%
- Descriptions (Initial): White
- Related Substance [by HPLC] Total impurities (Initial): 0.04 % w/w
- Related Substance [by HPLC] Unknown impurity RRT = 0.81 (Initial): 0.04 % w/w
- Water content by KF (Initial): 0.52 % w/w
- Identification by IR (Initial): concordant
Structure (SMILES): CS(=O)(=O)O.Cc1ccc(NC(=O)c2ccc(CN3CCN(C)CC3)cc2)cc1Nc1nccc(-c2cccnc2)n1 [Example 2]
